The supplement of paper PMC10331698
± gives the standard deviation of the averaged measurements.

Columns and labels:
Experiment in all cases: level (log10 ratio to DMSO vehicle control); higher = higher biomarker level / cell amount than vehicle control
Conditions in all cases: in DMSO
[1] = compound: NC(=O)C(F)(F)C(F)(F)C(F)(F)C(F)(F)C(N)=O [Octafluoroadipamide]
Experimental: (§1)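 BioMAP Diversity Plus panel of 12 human primary cell co-culture systems (3C, 4H, LPS, SAg, BT, BF4T, BE3C, CASM3C, HDF3CGF, KF3CT, MyoF, Mphg). Compounds were added 1 h before stimulation and left for 24 h (MyoF 48 h; BT 72 h for soluble read-outs or 6 d for IgG). Biomarkers were read by ELISA, cytotoxicity by SRB, PBMC viability and proliferation by Alamar Blue. Each well value was divided by the mean of 8 DMSO control wells on the same plate and log10 transformed; duplicate blinded samples were tested at 4 concentrations.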

[2] = compound: FC(F)(F)C(F)(F)C(F)(F)C(F)(F)C(F)(F)C(F)(F)CC1CO1 [3-(Perfluorohexyl)-1,2-epoxypropane]
Experimental: as §1

[3] = compound: O=S(=O)(O)CCC(F)(F)C(F)(F)C(F)(F)C(F)(F)C(F)(F)C(F)(F)F [6:2 Fluorotelomer sulfonic acid]
Experimental: as §1

[4] = compound: FC(F)(F)C(F)(F)C(F)(F)CI [Heptafluorobutyl iodide]
Experimental: as §1

[5] = compound: O=S(=O)(F)C(F)(F)C(F)(F)C(F)(F)C(F)(F)C(F)(F)C(F)(F)C(F)(F)C(F)(F)F [Perfluorooctanesulfonyl fluoride]
Experimental: as §1

[6] = compound: O=S(=O)(Cl)C(F)(F)C(F)(F)C(F)(F)C(F)(F)C(F)(F)C(F)(F)C(F)(F)C(F)(F)F [Perfluoro-1-octanesulfonyl chloride]
Experimental: as §1

[7] = compound: FC(F)(F)C(F)(F)C(F)(F)C(F)(F)C(F)(F)C(F)(F)C(F)(F)I [1-Iodopentadecafluoroheptane]
Experimental: as §1

Test System | level (log10) ([1]; 6700 nM) | level (log10) ([1]; 20000 nM) | level (log10) ([1]; 60000 nM) | level (log10) ([2]; 6700 nM) | level (log10) ([2]; 20000 nM) | level (log10) ([2]; 60000 nM) | level (log10) ([3]; 6700 nM) | level (log10) ([3]; 20000 nM) | level (log10) ([3]; 60000 nM) | level (log10) ([4]; 6700 nM) | level (log10) ([4]; 20000 nM) | level (log10) ([4]; 60000 nM) | level (log10) ([5]; 6700 nM) | level (log10) ([5]; 20000 nM) | level (log10) ([5]; 60000 nM) | level (log10) ([6]; 6700 nM) | level (log10) ([6]; 20000 nM) | level (log10) ([6]; 60000 nM) | level (log10) ([7]; 6700 nM) | level (log10) ([7]; 20000 nM)
HDF3CGF:EGFR | -0.012 ± 0.082 | 0.0015 ± 0.054 | 0.0145 ± 0.087 | -0.0135 ± 0.011 | -0.01 ± 0.011 | -0.0055 ± 0.036 | -0.0455 ± 0.022 | -0.0535 ± 0.025 | -0.0305 ± 0.029 | -0.0495 ± 0.064 | -0.054 ± 0.072 | -0.0055 ± 0.04 | -0.0255 ± 0.067 | -0.089 ± 0.17 | -0.0715 ± 0.19 | -0.082 ± 0.045 | -0.0785 ± 0.015 | 0.031 ± 0.035 | 0.011 ± 0.02 | 0.0135 ± 0.042
MyoF:CD106/VCAM-1 | -0.006 ± 0.021 | 0.026 ± 0.0057 | 0.002 ± 0.0014 | 0.002 ± 0.013 | 0.013 ± 0.013 | 0.0205 ± 0.015 | -0.003 ± 0.0028 | -0.012 ± 0.0099 | -0.0095 ± 0.005 | -0.003 ± 0.0085 | -0.018 ± 0.0071 | -0.0055 ± 0.00071 | -0.0105 ± 0.00071 | -0.0105 ± 0.005 | -0.0185 ± 0.011 | -0.0025 ± 0.0064 | 0.0025 ± 0.025 | -0.0195 ± 0.0092 | -0.091 ± 0.0057 | -0.448 ± 0.019
3C:CD87/uPAR | 0.012 ± 0.011 | -0.0005 ± 0.011 | -0.0145 ± 0.0092 | 0.03 ± 0.0085 | 0.032 ± 0.0085 | 0.052 ± 0.017 | -0.0235 ± 0.07 | -0.0245 ± 0.023 | -0.0015 ± 0.015 | -0.0375 ± 0.0092 | -0.05 ± 0.051 | -0.032 ± 0.041 | -0.0125 ± 0.012 | -0.0085 ± 0.012 | -0.006 ± 0.0014 | 0.011 ± 0.024 | -0.0065 ± 0.016 | -0.199 ± 0.033 | -0.0165 ± 0.018 | -0.0175 ± 0.0078
HDF3CGF:TIMP-1 | 0.002 ± 0.0071 | 0.0015 ± 0.012 | 0.0035 ± 0.021 | 0.0085 ± 0.025 | 0.0265 ± 0.025 | 0.0305 ± 0.012 | 0.0225 ± 0.08 | -0.0045 ± 0.076 | 0.0175 ± 0.13 | -0.0195 ± 0.037 | -0.019 ± 0.0085 | -0.059 ± 0.025 | -0.0065 ± 0.00071 | 0.002 ± 0.0042 | -0.007 ± 0.0085 | 0.016 ± 0.038 | 0.053 ± 0.0057 | 0.139 ± 0.016 | -0.0185 ± 0.0021 | -0.024 ± 0.0042
